Test: Release of docetaxel from the polymer matrix of the device
Format: physicochemical
Details: Docetaxel incorporated in the polymer matrix in the form of powder
Source text: The selected active ingredient may be appropriately incorporated into the polymer matrix in a form suitable for obtaining a prolonged release of the main active ingredient itself, without affecting the pharmacological activity thereof. For example, the Docetaxel incorporated in the polymer matrix in the form of powder is released up to 60 days after implantation. Longer release times may be easily achieved by incorporating the active ingredient, instead of in the form of powder, in its co-crystalline form. This solid form reduces the rate of dissolution, which is a necessary prerequisite for subsequent diffusion into the space surrounding the implanted device, […].
To study the release profile, the μMESH device and the FLAT counterpart thereof were incubated in 1 ml of phosphate buffered saline (PBS), to mimic and maximize the volume of liquid to which the devices may be exposed in a local application. At different times, the solution was centrifuged at 5000 rpm for 10 min and the supernatant was analyzed using the protocol described above. The results are expressed as a percentage of the cumulative release over time of three samples for each type of device.

CC(=O)O[C@@]12CO[C@@H]1C[C@H](O)[C@@]1(C)C(=O)[C@H](O)C3=C(C)[C@@H](OC(=O)[C@H](O)[C@@H](NC(=O)OC(C)(C)C)c4ccccc4)C[C@@](O)([C@@H](OC(=O)c4ccccc4)[C@H]21)C3(C)C [Docetaxel]
release time of active ingredient after implantation: up to 60 days

Reference: US20210161807A1, “IMPLANTABLE DEVICE FOR LOCALIZED DRUG DELIVERY, USES AND MANUFACTURING METHOD THEREOF” (FONDAZIONE ISTITUTO ITALIANO DI TECNOLOGIA, priority 2018, published 2021)
